Where “and” joins values, the source holds several entries; their conditions need not be identical. Identical values can stand only once.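 How tested: cells in 96-well plates exposed to compound for 48 hours at five concentrations. Abbreviation: GI50, concentration required for 50% inhibition of growth. TGI denotes the concentration required for complete inhibition of growth.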
Legend:
Assay in all cases: NCI-60 cell line screen, 48 h
CCRF-CEM leukemia = system: CCRF-CEM leukemia
SNB-19 CNS = system: SNB-19 CNS
SK-MEL-28 melanoma = system: SK-MEL-28 melanoma
OVCAR-4 ovarian = system: OVCAR-4 ovarian
UACC-62 melanoma = system: UACC-62 melanoma
U251 CNS = system: U251 CNS
HCT-15 colon = system: HCT-15 colon
LOX IMVI melanoma = system: LOX IMVI melanoma
OVCAR-3 ovarian = system: OVCAR-3 ovarian
SK-OV-3 ovarian = system: SK-OV-3 ovarian

| Compound | TGI (CCRF-CEM leukemia) | TGI (SNB-19 CNS) | TGI (SK-MEL-28 melanoma) | TGI (OVCAR-4 ovarian) | TGI (UACC-62 melanoma) | TGI (U251 CNS) | TGI (HCT-15 colon) | TGI (LOX IMVI melanoma) | TGI (OVCAR-3 ovarian) | TGI (SK-OV-3 ovarian) | GI50 (CCRF-CEM leukemia) | GI50 (SNB-19 CNS) | GI50 (SK-MEL-28 melanoma) | GI50 (OVCAR-4 ovarian) | GI50 (UACC-62 melanoma) | GI50 (U251 CNS) | GI50 (HCT-15 colon) | GI50 (LOX IMVI melanoma) | GI50 (OVCAR-3 ovarian) | GI50 (SK-OV-3 ovarian) |
| --- | --- | --- | --- | --- | --- | --- | --- | --- | --- | --- | --- | --- | --- | --- | --- | --- | --- | --- | --- | --- |
| CS/C(c1ccccc1)=[N+](\[O-])Cc1ccccc1 | > 100 µM | > 100 µM | > 100 µM | > 100 µM | > 100 µM | > 100 µM | 32.9 µM | 31.6 µM | > 100 µM | > 100 µM |  |  |  |  |  |  |  |  |  |  |
| COc1ccc(Cn2cc3c(c2-c2cc(OC)c(OC)c(OC)c2)CCc2cnoc2-3)cc1N |  | > 100 µM | > 100 µM | > 100 µM | > 86.9 µM | > 100 µM | > 100 µM | > 100 µM | 0.0631 µM | > 100 µM | 0.0384 µM | 0.0621 µM | 0.0797 µM | 0.103 µM | 0.0447 µM | 0.0523 µM | 0.0454 µM | 0.0641 µM | 0.026 µM | 0.0447 µM |
| CN(CC(=O)O)Cc1oc(CO)cc(=O)c1O | > 100 µM | > 100 µM | > 100 µM | > 100 µM | > 100 µM | > 100 µM | > 100 µM | > 100 µM | > 100 µM | > 100 µM |  |  |  |  |  |  |  |  |  |  |
| Cn1cnc2c(F)c(Nc3ccc(Br)cc3F)c(C(=O)NOCCO)cc21 | > 100 µM | > 100 µM | 0.321 µM and 0.889 µM | > 100 µM | 0.228 µM and 0.664 µM | > 100 µM | > 100 µM | > 4.03 µM and 42.8 µM | > 100 µM | > 100 µM | > 100 µM | 4.37 µM | 0.0269 µM and 0.0304 µM | 8.06 µM | 0.0174 µM and 0.0234 µM | 7.78 µM | 57.5 µM | 0.0936 µM and 0.399 µM | > 100 µM | > 92 µM |
| COc1cc(NC(=O)NCc2ccco2)ccc1-c1ccc(NC(=O)NCc2ccco2)cc1OC | > 100 µM | 17.2 µM | 5.33 µM | 3.71 µM | 5.18 µM | 4.3 µM | > 100 µM | > 100 µM | 16.2 µM | 19.7 µM | 16.8 µM | 3.22 µM | 1.5 µM | 1.47 µM | 1.25 µM | 0.957 µM | 0.398 µM | 1.28 µM | 2.59 µM | 2.49 µM |
| COC(=O)[C@]12CC[C@@H](C)[C@H](C)[C@@H]1C1=CC[C@@H]3[C@@]4(C)C(C=O)=C[C@@](C)(COS(C)(=O)=O)C4[C@H](O)C[C@@]3(C)[C@]1(C)CC2 (some centres undefined) | 3.22 µM | 8.44 µM | 5.05 µM | 6.06 µM | 3.96 µM | 3.17 µM | 2.87 µM | 2.81 µM | 3.33 µM | 16.2 µM | 0.782 µM | 2.47 µM | 2.15 µM | 1.84 µM | 1.66 µM | 1.65 µM | 1.34 µM | 1.47 µM | 1.7 µM | 4.08 µM |
| Cc1ccc2nc(-c3ccc(N)c4ccccc34)[nH]c2c1 | 2.1 µM | > 44.7 µM | > 54.1 µM | > 100 µM | 17.2 µM | 22.5 µM | 13.4 µM | 15.2 µM | 1.85 µM | > 46.7 µM | 0.0382 µM | 0.721 µM | 3.38 µM | 8.58 µM | < 0.0147 µM | 0.0619 µM | < 0.0425 µM | 0.0801 µM | 0.748 µM | 0.283 µM |
| COC(=O)[C@H](C)NC(=O)[C@@H](OC)[C@@H]1Cc2cc3cc(OC4CC(OC5CC(O)C(O)C(C)O5)C(O)C(C)O4)c(C)c(O)c3c(O)c2C(=O)[C@H]1OC1CC(OC2CC(OC3CC(C)(O)C(O)C(C)O3)C(O)C(C)O2)C(O)C(C)O1 (some centres undefined) | > 50 µM | > 50 µM | 0.351 µM | 3.43 µM | 0.171 µM | > 50 µM | > 50 µM | > 50 µM | 7.41 µM | > 50 µM | 0.147 µM | 0.132 µM | 0.0309 µM | 0.163 µM | 0.0417 µM | 0.073 µM | 0.41 µM | 0.0308 µM | 0.118 µM | 0.359 µM |
| COc1ccc(-c2cc(-c3cccc(NS(C)(=O)=O)c3)nc(N)c2C#N)cc1 | > 100 µM | > 84 µM | 47.2 µM | 99.6 µM | 15.9 µM | 19.3 µM | 19.4 µM | > 37.5 µM | 0.115 µM | 1.57 µM | 0.0875 µM | 0.158 µM | 0.18 µM | 1.24 µM | 0.0459 µM | 0.0577 µM | 0.108 µM | 0.0743 µM | 0.0298 µM | 0.0879 µM |
| C=C(CNC(=O)c1ccccc1)c1ccc(C(=O)Nc2ccccc2N)cc1 | 8.38 µM | > 100 µM | > 100 µM | > 100 µM | 11.4 µM | 74.5 µM | > 100 µM | 73.2 µM | > 100 µM | > 100 µM | 0.493 µM | 80.2 µM | 14 µM | 11.6 µM | 1.75 µM | 5.43 µM | 8.14 µM | 6.1 µM | 11.2 µM | > 100 µM |

Reference: PubChem BioAssay (NCI)
